Measurements from the supplement of paper PMC10307832.

Columns and labels:
Assay in all cases: relative viability (nuclei count vs DMSO), 5 days (fraction); higher = more cells survive
ABC-1 = test system: ABC-1
In short: (§1)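 Lung cancer cell lines were pin-tool dosed in 1536-well plates on the day after seeding, with either a lone drug or a fixed anchor-drug dose plus five library-drug doses (not always all listed) in √10 steps. Nuclei were counted on 4× images after 5 days. Relative viability is the ratio of treated-well to vehicle-well nuclei counts, with each value a median of duplicate plates.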

CAL-12T = test system: CAL-12T
In short: as §1

COR-L 105 = test system: COR-L 105
In short: as §1

ChaGo-K-1 = test system: ChaGo-K-1
In short: as §1

EMC-BAC-2 = test system: EMC-BAC-2
In short: as §1

EPLC-272H = test system: EPLC-272H
In short: as §1

HCC-15 = test system: HCC-15
In short: as §1

HCC-78 = test system: HCC-78
In short: as §1

HOP-62 = test system: HOP-62
In short: as §1

LXF-289 = test system: LXF-289
In short: as §1

NCI-H1666 = test system: NCI-H1666
In short: as §1

NCI-H1755 = test system: NCI-H1755
In short: as §1

NCI-H1915 = test system: NCI-H1915
In short: as §1

NCI-H1975 = test system: NCI-H1975
In short: as §1

NCI-H1993 = test system: NCI-H1993
In short: as §1

NCI-H2023 = test system: NCI-H2023
In short: as §1

NCI-H2085 = test system: NCI-H2085
In short: as §1

NCI-H2126 = test system: NCI-H2126
In short: as §1

NCI-H3122 = test system: NCI-H3122
In short: as §1

NCI-H322M = test system: NCI-H322M
In short: as §1

NCI-H441 = test system: NCI-H441
In short: as §1

UMC-11 = test system: UMC-11
In short: as §1

**Q.** For O=C(O)c1ccc(-c2c[nH]c3ncc(-c4ccccc4)cc23)cc1C1CCCC1 + CC(C)C[C@H](NC(=O)[C@H](Cc1ccccc1)NC(=O)c1cnccn1)B(O)O [Bortezomib] (partner 0.002 µM), which relative viability (ABC-1; first compound 0.04 µM) is on record?
**A.** 0.264

**Q.** What about the relative viability (ABC-1; first compound 0.1265 µM) of the same molecule?
**A.** 0.299

**Q.** What about the relative viability (ABC-1; first compound 0.4 µM) of the same molecule?
**A.** 0.274

**Q.** What about the relative viability (ABC-1; first compound 1.265 µM) of the same molecule?
**A.** 0.251

**Q.** What about the relative viability (CAL-12T; first compound 0.04 µM) of the same molecule?
**A.** 0.911

**Q.** What about the relative viability (CAL-12T; first compound 0.1265 µM) of the same molecule?
**A.** 1.17

**Q.** And the relative viability (CAL-12T; first compound 0.4 µM)?
**A.** 0.883

**Q.** And the relative viability (CAL-12T; first compound 1.265 µM)?
**A.** 0.792

**Q.** And the relative viability (COR-L 105; first compound 0.04 µM)?
**A.** 0.775

**Q.** And the relative viability (COR-L 105; first compound 0.1265 µM)?
**A.** 0.78

**Q.** What about the relative viability (COR-L 105; first compound 0.4 µM) of the same molecule?
**A.** 0.788

**Q.** What about the relative viability (COR-L 105; first compound 1.265 µM) of the same molecule?
**A.** 0.819

**Q.** And the relative viability (ChaGo-K-1; first compound 0.04 µM)?
**A.** 1.08

**Q.** What about the relative viability (ChaGo-K-1; first compound 0.1265 µM) of the same molecule?
**A.** 1.16

**Q.** What about the relative viability (ChaGo-K-1; first compound 0.4 µM) of the same molecule?
**A.** 0.917

**Q.** And the relative viability (ChaGo-K-1; first compound 1.265 µM)?
**A.** 1.21

**Q.** What about the relative viability (EMC-BAC-2; first compound 0.04 µM) of the same molecule?
**A.** 1.02

**Q.** What about the relative viability (EMC-BAC-2; first compound 0.1265 µM) of the same molecule?
**A.** 1.16

**Q.** What about the relative viability (EMC-BAC-2; first compound 0.4 µM) of the same molecule?
**A.** 1.02

**Q.** What about the relative viability (EMC-BAC-2; first compound 1.265 µM) of the same molecule?
**A.** 1.04

**Q.** What about the relative viability (EPLC-272H; first compound 0.04 µM) of the same molecule?
**A.** 0.755

**Q.** And the relative viability (EPLC-272H; first compound 0.1265 µM)?
**A.** 1.13

**Q.** What about the relative viability (EPLC-272H; first compound 0.4 µM) of the same molecule?
**A.** 0.931

**Q.** What about the relative viability (EPLC-272H; first compound 1.265 µM) of the same molecule?
**A.** 1.01

**Q.** What about the relative viability (HCC-15; first compound 0.04 µM) of the same molecule?
**A.** 0.985

**Q.** What about the relative viability (HCC-15; first compound 0.1265 µM) of the same molecule?
**A.** 1.05

**Q.** And the relative viability (HCC-15; first compound 0.4 µM)?
**A.** 1.08

**Q.** And the relative viability (HCC-15; first compound 1.265 µM)?
**A.** 0.731

**Q.** And the relative viability (HCC-78; first compound 0.04 µM)?
**A.** 0.477

**Q.** What about the relative viability (HCC-78; first compound 0.1265 µM) of the same molecule?
**A.** 0.473

**Q.** And the relative viability (HCC-78; first compound 0.4 µM)?
**A.** 0.436

**Q.** What about the relative viability (HCC-78; first compound 1.265 µM) of the same molecule?
**A.** 0.495

**Q.** And the relative viability (HOP-62; first compound 0.04 µM)?
**A.** 1.01

**Q.** What about the relative viability (HOP-62; first compound 0.1265 µM) of the same molecule?
**A.** 0.725

**Q.** What about the relative viability (HOP-62; first compound 0.4 µM) of the same molecule?
**A.** 0.93

**Q.** And the relative viability (HOP-62; first compound 1.265 µM)?
**A.** 0.886

**Q.** And the relative viability (LXF-289; first compound 0.04 µM)?
**A.** 0.969

**Q.** What about the relative viability (LXF-289; first compound 0.1265 µM) of the same molecule?
**A.** 0.944

**Q.** And the relative viability (LXF-289; first compound 0.4 µM)?
**A.** 0.8

**Q.** What about the relative viability (LXF-289; first compound 1.265 µM) of the same molecule?
**A.** 0.568

**Q.** And the relative viability (NCI-H1666; first compound 0.04 µM)?
**A.** 0.86

**Q.** And the relative viability (NCI-H1666; first compound 0.1265 µM)?
**A.** 0.813

**Q.** What about the relative viability (NCI-H1666; first compound 0.4 µM) of the same molecule?
**A.** 0.739

**Q.** What about the relative viability (NCI-H1666; first compound 1.265 µM) of the same molecule?
**A.** 0.304

**Q.** What about the relative viability (NCI-H1755; first compound 0.04 µM) of the same molecule?
**A.** 1.01

**Q.** And the relative viability (NCI-H1755; first compound 0.1265 µM)?
**A.** 0.732

**Q.** What about the relative viability (NCI-H1755; first compound 0.4 µM) of the same molecule?
**A.** 0.997

**Q.** And the relative viability (NCI-H1755; first compound 1.265 µM)?
**A.** 0.924

**Q.** And the relative viability (NCI-H1915; first compound 0.04 µM)?
**A.** 0.957

**Q.** What about the relative viability (NCI-H1915; first compound 0.1265 µM) of the same molecule?
**A.** 0.949

**Q.** And the relative viability (NCI-H1915; first compound 0.4 µM)?
**A.** 0.957

**Q.** And the relative viability (NCI-H1915; first compound 1.265 µM)?
**A.** 0.789

**Q.** And the relative viability (NCI-H1975; first compound 0.04 µM)?
**A.** 0.344

**Q.** And the relative viability (NCI-H1975; first compound 0.1265 µM)?
**A.** 0.391

**Q.** What about the relative viability (NCI-H1975; first compound 0.4 µM) of the same molecule?
**A.** 0.335

**Q.** And the relative viability (NCI-H1975; first compound 1.265 µM)?
**A.** 0.195

**Q.** And the relative viability (NCI-H1993; first compound 0.04 µM)?
**A.** 1.18

**Q.** And the relative viability (NCI-H1993; first compound 0.4 µM)?
**A.** 1.14

**Q.** And the relative viability (NCI-H1993; first compound 1.265 µM)?
**A.** 0.871

**Q.** And the relative viability (NCI-H2023; first compound 0.04 µM)?
**A.** 1.04

**Q.** And the relative viability (NCI-H2023; first compound 0.1265 µM)?
**A.** 1.08

**Q.** What about the relative viability (NCI-H2023; first compound 0.4 µM) of the same molecule?
**A.** 1.09

**Q.** What about the relative viability (NCI-H2023; first compound 1.265 µM) of the same molecule?
**A.** 0.699

**Q.** And the relative viability (NCI-H2085; first compound 0.04 µM)?
**A.** 1.08

**Q.** What about the relative viability (NCI-H2085; first compound 0.1265 µM) of the same molecule?
**A.** 1.07

**Q.** And the relative viability (NCI-H2085; first compound 0.4 µM)?
**A.** 1.02

**Q.** What about the relative viability (NCI-H2085; first compound 1.265 µM) of the same molecule?
**A.** 0.896

**Q.** And the relative viability (NCI-H2126; first compound 0.04 µM)?
**A.** 1.16

**Q.** What about the relative viability (NCI-H2126; first compound 0.1265 µM) of the same molecule?
**A.** 1.13

**Q.** What about the relative viability (NCI-H2126; first compound 0.4 µM) of the same molecule?
**A.** 1.1

**Q.** And the relative viability (NCI-H2126; first compound 1.265 µM)?
**A.** 1.02

**Q.** And the relative viability (NCI-H3122; first compound 0.04 µM)?
**A.** 0.976

**Q.** And the relative viability (NCI-H3122; first compound 0.1265 µM)?
**A.** 1.01

**Q.** And the relative viability (NCI-H3122; first compound 0.4 µM)?
**A.** 0.984

**Q.** And the relative viability (NCI-H3122; first compound 1.265 µM)?
**A.** 0.986

**Q.** What about the relative viability (NCI-H322M; first compound 0.04 µM) of the same molecule?
**A.** 1.25

**Q.** And the relative viability (NCI-H322M; first compound 0.1265 µM)?
**A.** 1.32

**Q.** What about the relative viability (NCI-H322M; first compound 0.4 µM) of the same molecule?
**A.** 1.33

**Q.** And the relative viability (NCI-H322M; first compound 1.265 µM)?
**A.** 1.23

**Q.** What about the relative viability (NCI-H441; first compound 0.04 µM) of the same molecule?
**A.** 0.587

**Q.** And the relative viability (NCI-H441; first compound 0.1265 µM)?
**A.** 0.59

**Q.** What about the relative viability (NCI-H441; first compound 0.4 µM) of the same molecule?
**A.** 0.246

**Q.** What about the relative viability (NCI-H441; first compound 1.265 µM) of the same molecule?
**A.** 0.289

**Q.** What about the relative viability (UMC-11; first compound 0.04 µM) of the same molecule?
**A.** 0.747

**Q.** What about the relative viability (UMC-11; first compound 0.1265 µM) of the same molecule?
**A.** 0.764

**Q.** And the relative viability (UMC-11; first compound 0.4 µM)?
**A.** 0.666

**Q.** What about the relative viability (UMC-11; first compound 1.265 µM) of the same molecule?
**A.** 0.519
